Patent US20100292231A1, “Indazole Compounds for Treating Inflammatory Disorders, Demyelinating Disorders and Cancers” (priority 2007, published 2010)

Tests used:
Format in all cases: cell-based
MV-4-11 = experiment: MTS cellular proliferation assay; conditions: Homo sapiens, MV4-11, 72 hour incubation, read-out: Growth inhibitory activity (in vivo EC50 nM)
Excerpt: (§1) The viability of Flt3 expressing cells can be evaluated using a tetrazolium salt reduction cell-based assay. […] BaF3, both wild type and mutant, as well as transfected strains, MV4-11 and MOLM14 are well-characterized Flt3-dependent humanized or human cell lines which express active Flt3 receptors (see, Yee et al. Blood (2002)100 (8):2941-2949; Levis et al. (2002) 99(11): 3885-3891). These cell lines were used to determine the ability of the compounds provided herein to inhibit Flt3 in intact cells. In each case, and by methods known to those practiced in the art of cell culture, proliferation was measured after 72 hour incubation with the compounds provided herein using a standard MTS protocol (Promega Cat #5430 “Cell Titer 96 Aqueous Non-radioactive Cell Proliferation Assay”).
(§2) In general, cells were plated at 10,000-20,000 cells per well in DMEM medium with 0.5% serum. The compound plate was set up by aliquoting into column 1 of a 96 well 300 ul polypropylene plate, the negative control (DMSO), aliquoting into column 12 the positive control and titrating the test compound in serial dilutions into columns 2-1 l. An aliquot from each well of the compound plate was transferred to the plated cells and then incubated @ […] in 5% CO2. [00538] MTS tetrazolium compound (Owen's reagent) was thawed in a H2O bath. 20 μl of MTS tetrazolium was added to each well of optical plate and the cells were incubated @ 37° C. in 5% CO2 for 2 hours. The absorbance measured at 490 nm using a microplate reader.

BaF3-D835N = target: T1, BaF3-D835N (Homo sapiens, UniProt P36888, D835N, cells depend on it); experiment: MTS cellular proliferation assay; conditions: 72 hour incubation, read-out: Growth inhibitory activity (in vivo EC50 nM)
T1 sequence (P36888 1-993 D835N): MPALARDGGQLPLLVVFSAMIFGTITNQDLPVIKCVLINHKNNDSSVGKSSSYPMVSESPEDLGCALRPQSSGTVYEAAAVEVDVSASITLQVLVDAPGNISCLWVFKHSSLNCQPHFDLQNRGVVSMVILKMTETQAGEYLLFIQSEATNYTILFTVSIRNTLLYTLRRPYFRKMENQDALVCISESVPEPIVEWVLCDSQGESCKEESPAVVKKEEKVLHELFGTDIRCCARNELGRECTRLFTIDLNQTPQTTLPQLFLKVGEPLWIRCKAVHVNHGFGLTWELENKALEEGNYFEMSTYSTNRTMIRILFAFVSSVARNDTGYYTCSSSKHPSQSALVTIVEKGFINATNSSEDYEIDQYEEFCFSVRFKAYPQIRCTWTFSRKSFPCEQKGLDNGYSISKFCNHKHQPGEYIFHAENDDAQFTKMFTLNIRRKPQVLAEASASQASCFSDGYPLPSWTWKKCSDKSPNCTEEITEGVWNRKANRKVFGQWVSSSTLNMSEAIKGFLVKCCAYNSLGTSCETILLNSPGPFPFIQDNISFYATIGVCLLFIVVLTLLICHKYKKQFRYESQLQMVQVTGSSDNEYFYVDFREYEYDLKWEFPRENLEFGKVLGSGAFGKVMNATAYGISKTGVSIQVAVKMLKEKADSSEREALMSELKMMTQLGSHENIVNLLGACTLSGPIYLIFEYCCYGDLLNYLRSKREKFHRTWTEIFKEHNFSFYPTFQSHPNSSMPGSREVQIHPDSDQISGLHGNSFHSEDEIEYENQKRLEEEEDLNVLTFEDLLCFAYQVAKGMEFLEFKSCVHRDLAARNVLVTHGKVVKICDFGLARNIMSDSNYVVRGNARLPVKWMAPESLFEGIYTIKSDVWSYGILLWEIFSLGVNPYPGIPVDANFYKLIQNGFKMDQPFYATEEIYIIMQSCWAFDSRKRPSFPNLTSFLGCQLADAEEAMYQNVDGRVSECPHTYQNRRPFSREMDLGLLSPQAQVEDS
Excerpt: as §1, §2

[1] = tested on: U266B1 (multiple myeloma) cell line; experiment: sulforhodamine B (SRB) cytotoxicity assay; conditions: 72 h, 100 μM highest concentration, diluted 1:5, 3 day incubation, read-out: IC50 Measured Against U266B1 Cell Line
Experimental: (§3) The cytotoxic activity of compounds listed in Table 5 was determined with a sulforhodamine B (SRB) assay on panel of cell lines, including MdaMb231 (breast cancer), MV4-11 (leukemia), PC-3 (prostate cancer), U266B1 (multiple myeloma), C7 macrophages, and Raw264.7 (murine macrophage-like cells).
(§4) Cells growing in relevant media were seeded in a 96 well plate and left to adhere overnight. Cells were plated at appropriate cell densities: • MV4-11: 20.000 cells/well • Mda-Mb231: 6000 cells/well • C7: 10.000 cells/well • Raw264.7: 2000 cells/well • PC-3: 6000 cells/well • U266B1: 40.000 cells/well.
(§5) Cells were incubated before the compounds were added the next day to a top concentration of 100 μM and serially diluted 1 in 5 across the plate. After a 3 day incubation period (6 days for C7 and Raw264.7) cells were fixed with trichloroacetic acid (TCA) to end concentration of 10% for adherent cells and 16% end concentration for suspension cells for 1 hr at 4° C. before washing. Cells were stained with 0.4% sulforhodamine-B dye (SRB) in 1% acetic acid for 30 minutes and washed in 1% acetic acid. To solubilize the dye 100 μl 10 mM Tris, pH 10.5 was added and the absorbance was read at 564 nm. IC50 values were generated using the SoftMAX Pro™ software. The data is presented below in Tables 6 through 11.

[2] = tested on: PC-3 (prostate cancer) cell line; experiment: sulforhodamine B (SRB) cytotoxicity assay; conditions: Homo sapiens, PC-3, 72 h; 100 μM highest concentration, diluted 1:5; 3 day incubation; read-out: IC50 Measured Against PC-3 Cell Line
Experimental: as §3, §4, §5

C7 macrophages = experiment: sulforhodamine B (SRB) cytotoxicity assay; conditions: Macrophage, 144 h; 5 μM highest concentration, diluted 1:4; 6 day assay; read-out: IC50 Measured Against C7 Cell Line (6 day assay)
Experimental: as §3, §4, §5

Row | Structure (SMILES) | EC50 (MV-4-11) [nM] | EC50 (BaF3-D835N) [nM] | IC50 [1] [µM] | IC50 [2] [µM] | IC50 (C7 macrophages) [µM]
1 | CN(C)CCCCCNc1ccc2ncn3c4ccc5[nH]ncc5c4c(=O)c1c23 [(III)] | 184 | 316 | – | – | –
2 | O=c1c2c(NCCCN3CCOCC3)ccc3ncn(c4ccc5[nH]ncc5c14)c32 [(X)] | – | – | 7.06 | 17.3 | –
3 | CN(C)CCNc1ccc2ncn3c4ccc5[nH]ncc5c4c(=O)c1c23 [(XII)] | – | – | 6.11 | – | –
4 | CC(CCN1CCOCC1)Nc1ccc2ncn3c4ccc5[nH]ncc5c4c(=O)c1c23 (stereo not drawn) [(XVI)] | – | – | 14.5 | 8.92 | –
5 | CN1CCN(CCCNc2ccc3ncn4c5ccc6[nH]ncc6c5c(=O)c2c34)CC1 [(XVII)] | – | – | – | 9.65 | 0.36
6 | CN(C)CCCNc1ccc2ncn3c4ccc5[nH]ncc5c4c(=O)c1c23 [Compound (IV)] | 12 | 12 | 6.94 | 2.97 | –
7 | CCN(CC)CCCNc1ccc2ncn3c4ccc5[nH]ncc5c4c(=O)c1c23 [Compound (XV)] | – | – | – | 32.8 | 0.013
8 | CCN(CC)CCNc1ccc2ncn3c4ccc(O)cc4c(=O)c1c23 [Symadex, 5-(2-(diethylamino)ethylamino)-8-hydroxy-6H-imidazo[4,5,1-de]acridin-6-one, reference compound] | 13.1 | 14.3 | – | – | 0.015
